Reference: ChEMBL document CHEMBL4483862, “Open-source discovery of chemical leads for next-generation chemoprotective antimalarials” (2018)

Test system: Plasmodium berghei
Assay: Luciferase/luciferin-expressing antifolate-resistant parasites were used to infect a culture of HepG2 cells that were pre-incubated with compounds. Infected hepatocytes emit light due to the luciferase reaction. Assay results are presented as the percent inhibition of light emission compared to control. […]
Assay type: functional
Settings: sporozoite; for IC90: read-out: LUCIFERASE INFECTION ASSAY - IC90

Row | Compound | IC90 | also measured
1 | CCOc1cc(/C=C2\CN(CC)C/C(=C\c3ccc(O)c(OCC)c3)C2=O)ccc1O | 4.59 µM | IC50 (HEPG2TOX_HILL_SLOPE 12.4, HEPG2TOX_R_SQUARED 0.875, PBLUC_HILL_SLOPE 8.96, PBLUC_R_SQUARED 0.775, read-out: LUCIFERASE INFECTION ASSAY - IC50): 3.59 µM
2 | CCOc1cc(/C=C2\CN(C)C/C(=C\c3ccc(O)c(OCC)c3)C2=O)ccc1O | 6.75 µM | IC50 (HEPG2TOX_HILL_SLOPE 12.2, HEPG2TOX_R_SQUARED 0.94, PBLUC_HILL_SLOPE 1.92, PBLUC_R_SQUARED 0.794, read-out: LUCIFERASE INFECTION ASSAY - IC50): 2.16 µM
3 | CCN(c1ccccc1)S(=O)(=O)c1ccc(C(=O)NCC(c2ccccc2OC)N2CCCC2)cc1 (stereo not given) | 3.69 µM | IC50 (HEPG2TOX_HILL_SLOPE 12.4, HEPG2TOX_R_SQUARED 0.631, PBLUC_HILL_SLOPE 22.9, PBLUC_R_SQUARED 0.104, read-out: LUCIFERASE INFECTION ASSAY - IC50): 3.36 µM
4 | O=C(Nc1ccccc1)Nc1ccc(Cl)cc1[N+](=O)[O-] | 5.21 µM | IC50 (HEPG2TOX_HILL_SLOPE 12.3, HEPG2TOX_R_SQUARED 0.323, PBLUC_HILL_SLOPE 4.88, PBLUC_R_SQUARED 0.281, read-out: LUCIFERASE INFECTION ASSAY - IC50): 3.32 µM
5 | CCOC(=O)c1cnc(-c2ccccn2)nc1O | > 13.5 µM | IC50 (HEPG2TOX_HILL_SLOPE 12.4, HEPG2TOX_R_SQUARED 0.686, PBLUC_HILL_SLOPE 4.24, PBLUC_R_SQUARED 0.376, read-out: LUCIFERASE INFECTION ASSAY - IC50): 8.76 µM
6 | COc1cc(C(=O)N/N=C(\Cc2ncc[nH]2)c2ccccc2)cc(OC)c1OC | > 10 µM | IC50 (HEPG2TOX_HILL_SLOPE 12.3, 3.85, HEPG2TOX_R_SQUARED 0.0839, 0.975, PBLUC_HILL_SLOPE 2.96, PBLUC_R_SQUARED 0.327, read-out: LUCIFERASE INFECTION ASSAY - IC50): 5.09 µM
7 | FC(F)(F)c1cccc(-c2ccc3ncc(-c4cccnc4)n3n2)c1 | 2.23 µM | IC50 (HEPG2TOX_HILL_SLOPE 12.4, HEPG2TOX_R_SQUARED 0.643, PBLUC_HILL_SLOPE 4.46, PBLUC_R_SQUARED 0.619, read-out: LUCIFERASE INFECTION ASSAY - IC50): 1.36 µM
8 | Nc1ccc(-c2cn3c(-c4ccc5ncccc5c4)cnc3cn2)cn1 | 8.67 µM | IC50 (HEPG2TOX_HILL_SLOPE 12.3, HEPG2TOX_R_SQUARED 0.596, PBLUC_HILL_SLOPE 12.7, PBLUC_R_SQUARED 0.251, read-out: LUCIFERASE INFECTION ASSAY - IC50): 7.29 µM
9 | CCN1C/C(=C/c2ccccc2OC(F)F)C(=O)/C(=C/c2ccccc2OC(F)F)C1 | > 10 µM | IC50 (HEPG2TOX_HILL_SLOPE 12.5, HEPG2TOX_R_SQUARED 0.688, PBLUC_HILL_SLOPE 10.4, PBLUC_R_SQUARED 0.447, read-out: LUCIFERASE INFECTION ASSAY - IC50): 9.35 µM
10 | O=C(N/N=C/c1ccc(N2CCOCC2)s1)c1ccc(COc2cccc3cccnc23)cc1 | > 10 µM | IC50 (HEPG2TOX_HILL_SLOPE 12.5, HEPG2TOX_R_SQUARED 0.767, PBLUC_HILL_SLOPE 2.46, PBLUC_R_SQUARED 0.528, read-out: LUCIFERASE INFECTION ASSAY - IC50): 5.64 µM
11 | O=C1C(=O)N(Cc2ccc(F)cc2)c2c1cccc2C(F)(F)F | 6.88 µM | IC50 (HEPG2TOX_HILL_SLOPE 12.5, HEPG2TOX_R_SQUARED 0.837, PBLUC_HILL_SLOPE 3.51, PBLUC_R_SQUARED 0.677, read-out: LUCIFERASE INFECTION ASSAY - IC50): 3.68 µM
12 | FC(F)(F)c1cccc(Nc2cc3[nH]c(-c4ccccn4)cc3cn2)c1 | > 10 µM | IC50 (HEPG2TOX_HILL_SLOPE 12.3, HEPG2TOX_R_SQUARED 0.757, PBLUC_HILL_SLOPE 15.4, PBLUC_R_SQUARED 0.209, read-out: LUCIFERASE INFECTION ASSAY - IC50): 9.04 µM
13 | C=CCn1c(C)cc(C(=O)CNC(=O)Nc2ccccc2)c1C | > 10 µM | IC50 (HEPG2TOX_HILL_SLOPE 12.5, HEPG2TOX_R_SQUARED 0.766, PBLUC_HILL_SLOPE 0.462, PBLUC_R_SQUARED 0.648, read-out: LUCIFERASE INFECTION ASSAY - IC50): 0.495 µM
14 | O=S(=O)(/C=C/c1ccccc1)N1CCSc2ccc(Cl)cc21 | 4.27 µM | IC50 (HEPG2TOX_HILL_SLOPE 12.6, HEPG2TOX_R_SQUARED 0.499, PBLUC_HILL_SLOPE 12.6, PBLUC_R_SQUARED 0.783, read-out: LUCIFERASE INFECTION ASSAY - IC50): 3.58 µM
15 | CN(C)C(=O)c1ccc(-c2ccnc3n[nH]c(-c4ccc(Cl)cc4)c23)cc1 | 7.75 µM | IC50 (HEPG2TOX_HILL_SLOPE 12.3, HEPG2TOX_R_SQUARED 0.411, PBLUC_HILL_SLOPE 3.78, PBLUC_R_SQUARED 0.252, read-out: LUCIFERASE INFECTION ASSAY - IC50): 4.33 µM
16 | CCN1CCc2nc(NC(=O)C3(c4ccc(Br)cc4)CC3)sc2C1 | 3.64 µM | IC50 (HEPG2TOX_HILL_SLOPE 12.5, HEPG2TOX_R_SQUARED 0.865, PBLUC_HILL_SLOPE 12.4, PBLUC_R_SQUARED 0.642, read-out: LUCIFERASE INFECTION ASSAY - IC50): 3.05 µM
17 | CN1C/C(=C\c2ccccc2Cl)C(=O)/C(=C/c2ccccc2Cl)C1 | 3.58 µM | IC50 (HEPG2TOX_HILL_SLOPE 12.3, HEPG2TOX_R_SQUARED 0.936, PBLUC_HILL_SLOPE 378, PBLUC_R_SQUARED 0.452, read-out: LUCIFERASE INFECTION ASSAY - IC50): 3.56 µM
18 | Cc1onc(-c2ccccc2)c1-c1csc(-c2ccc(Oc3ccc(C(F)(F)F)cn3)cc2)n1 | 2.83 µM | IC50 (HEPG2TOX_HILL_SLOPE 12.3, HEPG2TOX_R_SQUARED 0.647, PBLUC_HILL_SLOPE 12.5, PBLUC_R_SQUARED 0.454, read-out: LUCIFERASE INFECTION ASSAY - IC50): 2.37 µM
19 | CCc1ccc2nc(Nc3nc(=O)cc(-c4cccc(OC)c4)[nH]3)nc(C)c2c1 | > 8.52 µM | IC50 (HEPG2TOX_HILL_SLOPE 12.4, HEPG2TOX_R_SQUARED 0.848, PBLUC_HILL_SLOPE 2.25, PBLUC_R_SQUARED 0.429, read-out: LUCIFERASE INFECTION ASSAY - IC50): 5.68 µM
20 | N#Cc1ccc(Nc2nc(C(F)(F)F)nc3ccccc23)cc1 | 5.09 µM | IC50 (HEPG2TOX_HILL_SLOPE 12.3, HEPG2TOX_R_SQUARED 0.755, PBLUC_HILL_SLOPE 4.38, PBLUC_R_SQUARED 0.727, read-out: LUCIFERASE INFECTION ASSAY - IC50): 3.08 µM
21 | CCc1ccc(CC)c(-c2csc(N/C(C)=C(\C#N)C(N)=O)n2)c1 | > 10 µM | IC50 (HEPG2TOX_HILL_SLOPE 12.4, HEPG2TOX_R_SQUARED 0.749, PBLUC_HILL_SLOPE 4.61, PBLUC_R_SQUARED 0.122, read-out: LUCIFERASE INFECTION ASSAY - IC50): 8.16 µM
22 | O=C(Nc1cccc(C(F)(F)F)c1)c1cc(Cl)c(=O)n(Cc2cccc(C(F)(F)F)c2)c1 | > 6.95 µM | IC50 (HEPG2TOX_HILL_SLOPE 12.5, HEPG2TOX_R_SQUARED 0.604, PBLUC_HILL_SLOPE 13, PBLUC_R_SQUARED 0.312, read-out: LUCIFERASE INFECTION ASSAY - IC50): 6.47 µM
23 | O=C(Nc1ccccc1)Nc1ccc(Sc2cccs2)cc1 | 8.94 µM | IC50 (HEPG2TOX_HILL_SLOPE 12.6, HEPG2TOX_R_SQUARED 0.73, PBLUC_HILL_SLOPE 4.46, PBLUC_R_SQUARED 0.693, read-out: LUCIFERASE INFECTION ASSAY - IC50): 5.46 µM
24 | O=C(NC1CCCCC1)N1CCc2nc(NCc3cccc(Oc4ccccc4)c3)ncc2C1 | > 7.21 µM | IC50 (HEPG2TOX_HILL_SLOPE 12.4, HEPG2TOX_R_SQUARED 0.711, PBLUC_HILL_SLOPE 13.6, PBLUC_R_SQUARED 0.535, read-out: LUCIFERASE INFECTION ASSAY - IC50): 6.74 µM
25 | Cc1cc(Br)c(O)c(/C=N/NC(=S)NC(C)(C)C)c1 | 4.85 µM | IC50 (HEPG2TOX_HILL_SLOPE 12.3, HEPG2TOX_R_SQUARED 0.401, PBLUC_HILL_SLOPE 113, PBLUC_R_SQUARED 0.332, read-out: LUCIFERASE INFECTION ASSAY - IC50): 4.76 µM
26 | Fc1ccc(CNc2ncnc3ccsc23)cc1 | > 10 µM | IC50 (HEPG2TOX_HILL_SLOPE 12.4, 1.24, HEPG2TOX_R_SQUARED 0.688, 0.830, PBLUC_HILL_SLOPE 1.50, 7.58, PBLUC_R_SQUARED 0.332, 0.354, read-out: LUCIFERASE INFECTION ASSAY - IC50): 6.82 µM
27 | N#Cc1ccc(/C=C/C(=O)c2cccc3ccccc23)cc1 | 7.94 µM | IC50 (HEPG2TOX_HILL_SLOPE 12.4, HEPG2TOX_R_SQUARED 0.741, PBLUC_HILL_SLOPE 61.7, PBLUC_R_SQUARED 0.602, read-out: LUCIFERASE INFECTION ASSAY - IC50): 7.66 µM
28 | FC(F)(F)c1cc(-n2c(-c3cccnc3Oc3ccccc3)n[nH]c2=S)cc(C(F)(F)F)c1 | 4.66 µM | IC50 (HEPG2TOX_HILL_SLOPE 12.4, HEPG2TOX_R_SQUARED 0.913, PBLUC_HILL_SLOPE 1.97, PBLUC_R_SQUARED 0.614, read-out: LUCIFERASE INFECTION ASSAY - IC50): 1.53 µM
29 | CCOC(=O)c1c(C)[nH]c(C(=O)Nc2nc(-c3ccc(C4CCCCC4)cc3)cs2)c1C | 9.4 µM | IC50 (HEPG2TOX_HILL_SLOPE 12.2, HEPG2TOX_R_SQUARED 0.959, PBLUC_HILL_SLOPE 12.5, PBLUC_R_SQUARED 0.559, read-out: LUCIFERASE INFECTION ASSAY - IC50): 7.88 µM
30 | C/C=C/C=C/C(=O)Nc1ccc(Nc2ccccc2)cc1 | 5.63 µM | IC50 (HEPG2TOX_HILL_SLOPE 12.3, HEPG2TOX_R_SQUARED 0.699, PBLUC_HILL_SLOPE 454, 10.1, PBLUC_R_SQUARED 0.588, 0.566, read-out: LUCIFERASE INFECTION ASSAY - IC50): 5.17 µM
